Experiments:
Phytophthora infestans = experiment: whole plant or invertebrate; assay type: in vivo; settings: for pest or weed control at 2 ppm / pest or weed control at 10 ppm / pest or weed control at 50 ppm / pest or weed control at 100 ppm: Phytophthora infestans, in Solanum lycopersicum, read-out: TLB control value (C.V.)
Puccinia recondita = experiment: Fungicidal activity against wheat leaf rust (WLR) disease, control value; assay type: in vivo; settings: for pest or weed control at 2 ppm / pest or weed control at 10 ppm / pest or weed control at 50 ppm / pest or weed control at 100 ppm: Puccinia recondita, read-out: WLR control value (C.V.)
Erysiphae graminis = experiment: Fungicidal activity against barley powdery mildew (BPM) disease, control value; assay type: in vivo; settings: for pest or weed control at 2 ppm / pest or weed control at 10 ppm / pest or weed control at 50 ppm / pest or weed control at 100 ppm: 168 h, read-out: BPM control value (C.V.)
[1] = test system: Pyricularia oryzae Carvara KA301; experiment: whole plant or invertebrate; assay type: in vivo; settings: for pest or weed control at 2 ppm / pest or weed control at 10 ppm / pest or weed control at 50 ppm / pest or weed control at 100 ppm: Pyricularia oryzae, read-out: RCB control value (C.V.)
Botrytis cinerae = experiment: Fungicidal activity against cucumber gray mold rot (CGM) disease, control value; assay type: in vivo; settings: for pest or weed control at 50 ppm / pest or weed control at 100 ppm: Botrytis, read-out: CGM control value (C.V.)
Rhizoctonia solani AG-1 = experiment: Fungicidal activity against rice sheath blight (RSB) disease, control value; settings: for pest or weed control at 2 ppm / pest or weed control at 10 ppm / pest or weed control at 50 ppm / pest or weed control at 100 ppm: Rhizoctonia solani, AG1, in Oryza sativa, read-out: RSB control value (C.V.)

Structure (SMILES): CNC(=O)/C(=N/OC)c1ccccc1COc1ccc(F)cc1C=C(Cl)Cl [Example 56, (E)-2-(2-((2-(2,2-dichlorovinyl)-4-fluorophenoxy)methyl)phenyl)-2-methoxyimino-N-methylacetamide]
- pest or weed control at 2 ppm (Phytophthora infestans): 95%
- pest or weed control at 10 ppm (Phytophthora infestans): 100%
- pest or weed control at 50 ppm (Phytophthora infestans): 100%
- pest or weed control at 100 ppm (Phytophthora infestans): 100%
- pest or weed control at 2 ppm (Puccinia recondita; 2 ppm): 100%
- pest or weed control at 10 ppm (Puccinia recondita; 10 ppm): 100%
- pest or weed control at 50 ppm (Puccinia recondita; 50 ppm): 100%
- pest or weed control at 100 ppm (Puccinia recondita; 100 ppm): 100%
- pest or weed control at 2 ppm (Erysiphae graminis; 2 ppm): 100%
- pest or weed control at 10 ppm (Erysiphae graminis; 10 ppm): 100%
- pest or weed control at 50 ppm (Erysiphae graminis; 50 ppm): 100%
- pest or weed control at 100 ppm (Erysiphae graminis; 100 ppm): 100%
- pest or weed control at 2 ppm [1]: 97%
- pest or weed control at 10 ppm [1]: 100%
- pest or weed control at 50 ppm [1]: 100%
- pest or weed control at 100 ppm [1]: 100%
- pest or weed control at 50 ppm (Botrytis cinerae): 20%
- pest or weed control at 100 ppm (Botrytis cinerae; 100 ppm): 65%
- pest or weed control at 2 ppm (Rhizoctonia solani AG-1): 95%
- pest or weed control at 10 ppm (Rhizoctonia solani AG-1): 100%
- pest or weed control at 50 ppm (Rhizoctonia solani AG-1): 100%
- pest or weed control at 100 ppm (Rhizoctonia solani AG-1): 100%

Structure (SMILES): CNC(=O)/C(=N/OC)c1ccccc1COc1c(OC)ccc(C=C(Br)Br)c1Br [Example 76]
- TLB control value (C.V.) (Phytophthora infestans; 2 ppm): 70%
- TLB control value (C.V.) (Phytophthora infestans; 10 ppm): 90%
- TLB control value (C.V.) (Phytophthora infestans; 50 ppm): 98%
- TLB control value (C.V.) (Phytophthora infestans; 100 ppm): 100%
- WLR control value (C.V.) (Puccinia recondita; 2 ppm): 95%
- WLR control value (C.V.) (Puccinia recondita; 10 ppm): 100%
- WLR control value (C.V.) (Puccinia recondita; 50 ppm): 100%
- WLR control value (C.V.) (Puccinia recondita; 100 ppm): 100%
- BPM control value (C.V.) (Erysiphae graminis; 2 ppm): 95%
- BPM control value (C.V.) (Erysiphae graminis; 10 ppm): 100%
- BPM control value (C.V.) (Erysiphae graminis; 50 ppm): 100%
- BPM control value (C.V.) (Erysiphae graminis; 100 ppm): 100%
- RCB control value (C.V.) ([1]; 2 ppm): 30%
- RCB control value (C.V.) ([1]; 10 ppm): 90%
- RCB control value (C.V.) ([1]; 50 ppm): 100%
- RCB control value (C.V.) ([1]; 100 ppm): 100%
- CGM control value (C.V.) (Botrytis cinerae; 100 ppm): 45%
- RSB control value (C.V.) (Rhizoctonia solani AG-1; 2 ppm): 65%
- RSB control value (C.V.) (Rhizoctonia solani AG-1; 10 ppm): 98%
- RSB control value (C.V.) (Rhizoctonia solani AG-1; 50 ppm): 100%
- RSB control value (C.V.) (Rhizoctonia solani AG-1; 100 ppm): 100%

Structure (SMILES): CO/N=C(/C(=O)OC)c1ccccc1COc1c(OC)ccc(C=C(Br)Br)c1Br [Example 75, methyl-(E)-2-(2-((2-bromo-3-(2,2-dibromovinyl)-6-methoxyphenoxy)methyl)phenyl)-2-methoxyiminoacetate]
- pest or weed control at 2 ppm (Phytophthora infestans): 70%
- pest or weed control at 10 ppm (Phytophthora infestans): 90%
- pest or weed control at 50 ppm (Phytophthora infestans): 98%
- pest or weed control at 100 ppm (Phytophthora infestans): 100%
- pest or weed control at 2 ppm (Puccinia recondita; 2 ppm): 95%
- pest or weed control at 10 ppm (Puccinia recondita; 10 ppm): 100%
- pest or weed control at 50 ppm (Puccinia recondita; 50 ppm): 100%
- pest or weed control at 100 ppm (Puccinia recondita; 100 ppm): 100%
- pest or weed control at 2 ppm (Erysiphae graminis; 2 ppm): 92%
- pest or weed control at 10 ppm (Erysiphae graminis; 10 ppm): 98%
- pest or weed control at 50 ppm (Erysiphae graminis; 50 ppm): 100%
- pest or weed control at 100 ppm (Erysiphae graminis; 100 ppm): 100%
- pest or weed control at 2 ppm [1]: 30%
- pest or weed control at 10 ppm [1]: 90%
- pest or weed control at 50 ppm [1]: 100%
- pest or weed control at 100 ppm [1]: 100%
- pest or weed control at 100 ppm (Botrytis cinerae; 100 ppm): 40%
- pest or weed control at 2 ppm (Rhizoctonia solani AG-1): 65%
- pest or weed control at 10 ppm (Rhizoctonia solani AG-1): 98%
- pest or weed control at 50 ppm (Rhizoctonia solani AG-1): 100%
- pest or weed control at 100 ppm (Rhizoctonia solani AG-1): 100%

Structure (SMILES): CO/N=C(/C(=O)OC)c1ccccc1COc1cc(Br)ccc1C=C(Cl)Cl [Example 61, methyl-(E)-2-(2-((5-bromo-2-(2,2-dichlorovinyl)phenoxy)methyl)phenyl)-2-methoxyiminoacetate]
- pest or weed control at 2 ppm (Phytophthora infestans): 99%
- pest or weed control at 10 ppm (Phytophthora infestans): 100%
- pest or weed control at 50 ppm (Phytophthora infestans): 100%
- pest or weed control at 100 ppm (Phytophthora infestans): 100%
- pest or weed control at 2 ppm (Puccinia recondita; 2 ppm): 100%
- pest or weed control at 10 ppm (Puccinia recondita; 10 ppm): 100%
- pest or weed control at 50 ppm (Puccinia recondita; 50 ppm): 100%
- pest or weed control at 100 ppm (Puccinia recondita; 100 ppm): 100%
- pest or weed control at 2 ppm (Erysiphae graminis; 2 ppm): 100%
- pest or weed control at 10 ppm (Erysiphae graminis; 10 ppm): 100%
- pest or weed control at 50 ppm (Erysiphae graminis; 50 ppm): 100%
- pest or weed control at 100 ppm (Erysiphae graminis; 100 ppm): 100%
- pest or weed control at 2 ppm [1]: 99%
- pest or weed control at 10 ppm [1]: 100%
- pest or weed control at 50 ppm [1]: 100%
- pest or weed control at 100 ppm [1]: 100%
- pest or weed control at 50 ppm (Botrytis cinerae): 40%
- pest or weed control at 100 ppm (Botrytis cinerae; 100 ppm): 85%
- pest or weed control at 2 ppm (Rhizoctonia solani AG-1): 95%
- pest or weed control at 10 ppm (Rhizoctonia solani AG-1): 100%
- pest or weed control at 50 ppm (Rhizoctonia solani AG-1): 100%
- pest or weed control at 100 ppm (Rhizoctonia solani AG-1): 100%

From US8410302B2, “Methoxyimino compounds and fungicide composition comprising same” (Kyung Nong Corporation, priority 2007, dated 2013)
